Experimental data from patent EP2975030B1, “DIHYDROPYRIDAZINE-3,5-DIONE DERIVATIVE” (Chugai Seiyaku Kabushiki Kaisha, priority 2013, dated 2014).

The molecules below were run on rat small-intestinal brush border membrane vesicles (assay: Inhibitory effect on 33PO4 uptake into rat small-intestinal brush border membrane vesicles (rapid filtration method)). Details: 1 µM test compound; 33PO4 uptake into rat small-intestinal BBMVs, 60 seconds.
Assay type: biochemical, Wistar female rat
How it was run: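 Uptake was terminated by ice-cold 110 mM NaCl, 1 mM KH2PO4, 10 mM HEPES (pH 7.5) buffer and immediate suction filtration, then washing. Using rat small-intestinal BBMVs, retained 33PO4 was quantified by liquid scintillation counting as transport activity.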

Row | SMILES | Rate of uptake inhibition (%) (1 µM)
1 | C[C@]12CCCN1N(Cc1c(F)cccc1Cl)C(=O)C(C(=O)Nc1ccc(C(F)(F)F)cc1-c1cc(C(F)(F)F)ncn1)=C2O [Example 210] | 71
2 | C[C@]12CCCN1N(Cc1cc(Cl)ccc1F)C(=O)C(C(=O)Nc1ccc(C(F)(F)F)cc1-c1cc(C(F)(F)F)ncn1)=C2O [Example 211] | 72
3 | C[C@]12CCCN1N(Cc1c(F)cccc1F)C(=O)C(C(=O)Nc1ccc(C(F)(F)F)cc1-c1cc(C(F)(F)F)ncn1)=C2O [Example 212] | 98
4 | C[C@]12CCCN1N(Cc1cc(F)cc(F)c1)C(=O)C(C(=O)Nc1ccc(C(F)(F)F)cc1-c1cc(C(F)(F)F)ncn1)=C2O [Example 213] | 79
5 | C[C@]12CCCN1N(Cc1ccc(F)c(F)c1)C(=O)C(C(=O)Nc1ccc(C(F)(F)F)cc1-c1cc(C(F)(F)F)ncn1)=C2O [Example 214] | 91
6 | Cc1cccc(CN2C(=O)C(C(=O)Nc3ccc(C(F)(F)F)cc3-c3cc(C(F)(F)F)ncn3)=C(O)[C@@]3(C)CCCN23)c1F [Example 215] | 86
7 | C[C@]12CCCN1N(Cc1ccccc1C#N)C(=O)C(C(=O)Nc1cc(F)c(Br)c(F)c1)=C2O [Example 218] | 82
8 | C[C@]12CCCN1N(Cc1ccccc1Cl)C(=O)C(C(=O)Nc1cc(F)c(Br)c(F)c1)=C2O [Example 219] | 95
9 | C[C@]12CCCN1N(Cc1cccc(C#N)c1)C(=O)C(C(=O)Nc1cc(F)c(Br)c(F)c1)=C2O [Example 220] | 96
10 | C[C@]12CCCN1N(Cc1cccc(Cl)c1)C(=O)C(C(=O)Nc1cc(F)c(Br)c(F)c1)=C2O [Example 221] | 82
11 | C[C@]12CCCN1N(Cc1ccc(C#N)cc1)C(=O)C(C(=O)Nc1cc(F)c(Br)c(F)c1)=C2O [Example 222] | 97
12 | C[C@]12CCCN1N(Cc1ccc(Cl)cc1)C(=O)C(C(=O)Nc1cc(F)c(Br)c(F)c1)=C2O [Example 223] | 77
13 | C[C@]12CCCN1N(CCCC(F)(F)F)C(=O)C(C(=O)Nc1ccc(C(F)(F)F)cc1-c1cc(C(F)(F)F)ncn1)=C2O [Example 234, (4aR)-4-Hydroxy-4a-methyl-2-oxo-1-(4,4,4-trifluorobutyl)-N-[4-(trifluoromethyl)-2-[6-(trifluoromethyl)pyrimidin-4-yl]phenyl]-6,7-dihydro-5H-pyrrolo[1,2-b]pyridazine-3-carboxamide] | 73
14 | CCOC(=O)CCCCCCN1C(=O)C(C(=O)Nc2ccc(C(F)(F)F)cc2-c2ccc(C(F)(F)F)nc2)=C(O)[C@@]2(C)CCCN12 [Example 235, Ethyl 7-[(4aR)-4-hydroxy-4a-methyl-2-oxo-3-[[4-(trifluoromethyl)-2-[6-(trifluoromethyl)pyridin-3-yl]phenyl]carbamoyl]-6,7-dihydro-5H-pyrrolo[1,2-b]pyridazin-1-yl]heptanoate] | 65
15 | COCCOCCOCCCCCCCCN1C(=O)C(C(=O)Nc2ccc(C(F)(F)F)cc2-c2cc(C(F)(F)F)ncn2)=C(O)[C@@]2(C)CCCN12 [Example 236, (4aR)-4-Hydroxy-1-[8-[2-(2-methoxyethoxy)ethoxy]octyl]-4a-methyl-2-oxo-N-[4-(trifluoromethyl)-2-[6-(trifluoromethyl)pyrimidine-4-yl]phenyl]-6,7-dihydro-5H-pyrrolo[1,2-b]pyridazine-3-carboxamide] | 60
16 | CN1[C@@H](C(C)(C)C)C(O)=C(C(=O)Nc2ccc(Cl)cc2-c2cc(C(F)(F)F)ncn2)C(=O)N1Cc1cccc(F)c1F [Example 237] | 51
17 | CN1[C@@H](C(C)(C)C)C(O)=C(C(=O)Nc2ccc(C(F)(F)F)cc2-c2ccc(C(F)(F)F)nc2)C(=O)N1Cc1cccc(F)c1F [Example 238] | 47
18 | CN1[C@@H](C(C)(C)C)C(O)=C(C(=O)Nc2ccc(Cl)cc2-c2ccc(C(F)(F)F)nc2)C(=O)N1Cc1cccc(F)c1F [Example 239] | 48
19 | CN1[C@@H](C(C)(C)C)C(O)=C(C(=O)Nc2cc(F)c(Br)c(F)c2)C(=O)N1Cc1cccc(F)c1F [Example 240] | 72
20 | Cc1nc(NC(=O)C2=C(O)[C@H](C(C)(C)C)N(C)N(Cc3cccc(F)c3F)C2=O)ccc1Br [Example 241] | 86
21 | CN1[C@@H](C(C)(C)C)C(O)=C(C(=O)Nc2ccc(Br)c(C(F)(F)F)n2)C(=O)N1Cc1cccc(F)c1F [Example 242] | 69
22 | CN1[C@@H](C(C)(C)C)C(O)=C(C(=O)Nc2ccc(Br)c(C(F)(F)F)c2)C(=O)N1Cc1cccc(F)c1F [Example 243] | 63
23 | CN1[C@@H](C(C)(C)C)C(O)=C(C(=O)Nc2cccc(C(F)(F)F)n2)C(=O)N1Cc1cccc(F)c1F [Example 244] | 71
24 | CCN1[C@@H](C(C)(C)C)C(O)=C(C(=O)Nc2ccc(Cl)cc2-c2ccc(C(F)(F)F)nc2)C(=O)N1Cc1cccc(F)c1F [Example 245] | 40
25 | CCN1[C@@H](C(C)(C)C)C(O)=C(C(=O)Nc2cc(F)c(Br)c(F)c2)C(=O)N1Cc1cccc(F)c1F [Example 246] | 52
26 | CC(C)(C)[C@H]1C(O)=C(C(=O)Nc2ccc(Cl)cc2-c2ccc(C(F)(F)F)nc2)C(=O)N(Cc2cccc(F)c2F)N1CC(F)(F)F [Example 247] | 51

Row | SMILES | Rate of uptake inhibition (%) (1 µM)
27 | CC(C)(C)[C@H]1C(O)=C(C(=O)Nc2cc(F)c(Br)c(F)c2)C(=O)N(Cc2cccc(F)c2F)N1CC(F)(F)F [Example 248] | 45
28 | CC(C)[C@@H]1C(O)=C(C(=O)Nc2ccc(C(F)(F)F)cc2-c2cc(C(F)(F)F)ncn2)C(=O)N(Cc2cccc(F)c2F)N1C [Example 249] | 50
29 | CC(C)[C@@H]1C(O)=C(C(=O)Nc2ccc(Cl)cc2-c2cc(C(F)(F)F)ncn2)C(=O)N(Cc2cccc(F)c2F)N1C [Example 250] | 52
30 | CC(C)[C@@H]1C(O)=C(C(=O)Nc2ccc(Cl)cc2-c2ccc(C(F)(F)F)nc2)C(=O)N(Cc2cccc(F)c2F)N1C [Example 251] | 43
31 | CC(C)[C@H]1C(O)=C(C(=O)Nc2ccc(C(F)(F)F)cc2-c2cc(C(F)(F)F)ncn2)C(=O)N(Cc2cccc(F)c2F)N1C [Example 252] | 53
32 | CC(C)[C@H]1C(O)=C(C(=O)Nc2ccc(C(F)(F)F)cc2-c2ccc(C(F)(F)F)nc2)C(=O)N(Cc2cccc(F)c2F)N1C [Example 253] | 40
33 | CC(C)[C@H]1C(O)=C(C(=O)Nc2cc(F)c(Br)c(F)c2)C(=O)N(Cc2cccc(F)c2F)N1C [Example 254] | 58
34 | CN1N(Cc2cccc(F)c2F)C(=O)C(C(=O)Nc2ccc(Cl)cc2-c2cc(C(F)(F)F)ncn2)=C(O)C12CCC2 [Example 255] | 80
35 | CN1N(Cc2cccc(F)c2F)C(=O)C(C(=O)Nc2ccc(Cl)cc2-c2ccc(C(F)(F)F)nc2)=C(O)C12CCC2 [Example 256] | 79
36 | CN1N(Cc2cccc(F)c2F)C(=O)C(C(=O)Nc2cc(F)c(Br)c(F)c2)=C(O)C12CCC2 [Example 257] | 71
37 | CN1N(Cc2cccc(F)c2F)C(=O)C(C(=O)Nc2ccc(Br)c(C(F)(F)F)n2)=C(O)C12CCC2 [Example 258] | 87
38 | Cc1nc(NC(=O)C2=C(O)C3(CCC3)N(C)N(Cc3cccc(F)c3F)C2=O)ccc1Br [Example 259] | 52
39 | CN1N(Cc2cccc(F)c2F)C(=O)C(C(=O)Nc2ccc(C(F)(F)F)cc2-c2cc(C(F)(F)F)ncn2)=C(O)C12CCCC2 [Example 260] | 70
40 | CN1N(Cc2cccc(F)c2F)C(=O)C(C(=O)Nc2ccc(Cl)cc2-c2cc(C(F)(F)F)ncn2)=C(O)C12CCCC2 [Example 261] | 77
41 | Cc1nc(NC(=O)C2=C(O)C3(CCCC3)N(C)N(Cc3cccc(F)c3F)C2=O)ccc1Br [Example 262] | 43
42 | CN1N(Cc2cccc(F)c2F)C(=O)C(C(=O)Nc2ccc(Br)c(C(F)(F)F)n2)=C(O)C12CCCC2 [Example 263] | 66
43 | CN1[C@@H](C(C)(C)C)C(O)=C(C(=O)Nc2ccc(C(F)(F)F)cc2-c2ccc(C(F)(F)F)nc2)C(=O)N1Cc1ccc(OCCN2CCOCC2)c(F)c1F [Example 266] | 62
44 | CSc1ccc(-c2cc(C(F)(F)F)ccc2NC(=O)C2=C(O)[C@H](C(C)(C)C)N(C)N(Cc3ccc(OCCN4CCOCC4)c(F)c3F)C2=O)cn1 [Example 268] | 63
45 | CN1[C@@H](C(C)(C)C)C(O)=C(C(=O)Nc2ccc(C(F)(F)F)cc2-c2ccnc(C#N)c2)C(=O)N1Cc1ccc(OCCN2CCOCC2)c(F)c1F [Example 271] | 60
46 | CN1[C@@H](C(C)(C)C)C(O)=C(C(=O)Nc2ccc(Cl)cc2-c2cc(C#N)ncn2)C(=O)N1Cc1ccc(OCCN2CCOCC2)c(F)c1F [Example 272] | 43
47 | CN1[C@@H](C(C)(C)C)C(O)=C(C(=O)Nc2cnc(C(F)(F)F)nc2-c2ccc(C(F)(F)F)nc2)C(=O)N1Cc1ccc(OCCN2CCOCC2)c(F)c1F [Example 273] | 41
48 | Cc1c(C#N)ncnc1-c1cc(Cl)ccc1NC(=O)C1=C(O)[C@H](C(C)(C)C)N(C)N(Cc2ccc(OCCN3CCOCC3)c(F)c2F)C1=O [Example 274] | 43
49 | Cc1c(Cl)ncnc1-c1cc(Cl)ccc1NC(=O)C1=C(O)[C@H](C(C)(C)C)N(C)N(Cc2ccc(OCCN3CCOCC3)c(F)c2F)C1=O [Example 275] | 42
50 | Cc1c(Cl)ncnc1-c1cc(C(F)(F)F)ccc1NC(=O)C1=C(O)[C@H](C(C)(C)C)N(C)N(Cc2ccc(OCCN3CCOCC3)c(F)c2F)C1=O [Example 276] | 68
51 | CN1[C@@H](C(C)(C)C)C(O)=C(C(=O)Nc2ccc(C(F)(F)F)cc2C(F)(F)F)C(=O)N1Cc1ccc(OCCN2CCOCC2)c(F)c1F [Example 277] | 41
